Tests used:
[1] = dissolution rate analysis by dissolution tester (Weibull model); type: physicochemical
Protocol: The microparticle morphology and size are detected by the scanning electron microscopy (SEM). The particle size distribution (PSD) is analyzed by the image analysis software “Image J”. The crystal properties are analyzed by the X-Ray diffractometer. The changes in the crystal form are detected by the differential scanning calorimetry (DSC). […] The analyses of the dissolution rate are performed by the dissolution tester.

[2] = background statement; cited from earlier work

## CC(=O)Nc1nnc(S(N)(=O)=O)s1 [acetazolamide bulk drug, acetazolamide]
[1]
  dissolution rate coefficient: 0.0626 min⁻¹
[2]
  particle size of commercial acetazolamide drug: about 20 μm

From patent US20120121708A1 (National Taiwan University, priority 2010, published 2012)
